# Results taken from US20070172957A1, “Methods of identifying anti-inflammatory macrolides” (TAISHO PHARMACEUTICAL CO., LTD., priority 2004, published 2007).
# System: genes predictive for the anti-inflammatory macrolide effect
# Assay: Genes statistically predictive of Clari response: differentially expressed with Clari but not the inactive macrolides MAA or Josa (Appendix E)
# Format: cell-based
# Text: In the case of the above-mentioned (i) related to arachidonic acid biosynthesis, specifically, methods of the embodiment involve assaying whether a test macrolide alters biosynthesis of arachidonic acid, alters the expression or activities of enzymes involved in the biosynthesis or activation of arachidonic acid (e.g., arachidonic acid CoA synthetase, delta-6 desaturase, fatty acid elongase, and delta-5 desaturase, AA-related genes in Tables 2 and 3), or alters the expression of genes identified as predictive for the anti-inflammatory macrolide effect (Appendix E). Assays in which arachidonic acid or gene expression or enzymatic activity is detected can be carried out after contacting a cell with a test macrolide. Any cell line that secretes prostaglandin or produces arachidonic acid can be used. Epithelial and macrophages lines (e.g., A549 or THP-1) are suitable for this purpose; other cell lines can be identified by carrying out assays such as those described in the specific Examples, below. Alternatively, screening assays can be carried out after adding a test macrolide to an in vitro cell system (e.g., a cellular extract or liver microsome preparation) or an in vitro enzyme assay system.
smiles,measurement,setting,value
CO[C@@H]1[C@@H](O[C@@H]2O[C@H](C)[C@@H](O[C@H]3C[C@@](C)(O)[C@@H](OC(=O)CC(C)C)[C@H](C)O3)[C@H](N(C)C)[C@H]2O)[C@@H](CC=O)C[C@@H](C)[C@@H](O)/C=C/C=C/C[C@@H](C)OC(=O)C[C@H]1OC(C)=O [josamycin],"group mean, gene BCKDK","SpotID 47949, MAA and Josa vs. Clari",1.07
same,"group mean, gene DNASE1L1","SpotID 47950, MAA and Josa vs. Clari",0.96
same,"mean group, DNASE1L1","SpotID 47950, pooled group mean",0.96
same,"group mean, gene COX15","SpotID 47951, MAA and Josa vs. Clari",1.05
same,"mean group, USF2","SpotID 47973, pooled group mean",0.96
same,"group mean, gene THBS1","SpotID 47987, MAA and Josa vs. Clari",1.02
same,"mean group, THBS1","SpotID 47987, pooled group mean",1.02
same,"mean group, RPN2","SpotID 47988, pooled group mean",0.93
same,"group mean, gene PTGER1","SpotID 47995, MAA and Josa vs. Clari",1.00
same,"group mean, gene CTSH","SpotID 48000, MAA and Josa vs. Clari",0.93
same,"mean group, CUTL1","SpotID 48004, pooled group mean",1.22
same,"group mean, gene BCL2L2","SpotID 48006, MAA and Josa vs. Clari",0.86
same,"mean group, SRF","SpotID 48026, pooled group mean",0.94
same,"group mean, gene SCN1B","SpotID 48121, MAA and Josa vs. Clari",0.90
same,"mean group, FRDA","SpotID 48137, pooled group mean",1.03
same,"group mean, gene SFRS7","SpotID 48149, MAA and Josa vs. Clari",0.98
same,"mean group, SFRS7","SpotID 48149, pooled group mean",0.98
same,"group mean, gene ZAP3","SpotID 48160, MAA and Josa vs. Clari",1.08
same,"mean group, ZAP3","SpotID 48160, pooled group mean",1.08
same,"group mean, gene SNAPC1","SpotID 48182, MAA and Josa vs. Clari",1.00
same,"group mean, gene OPA1","SpotID 48192, MAA and Josa vs. Clari",1.02
same,"group mean, gene BAT8","SpotID 48214, MAA and Josa vs. Clari",1.02
same,"group mean, gene MAPK12","SpotID 48233, MAA and Josa vs. Clari",0.88
same,"mean group, MAPK12","SpotID 48233, pooled group mean",0.88
same,"group mean, gene DAXX","SpotID 48235, MAA and Josa vs. Clari",1.02
same,"group mean, gene GRB2","SpotID 48266, MAA and Josa vs. Clari",0.93
same,"mean group, GRB2","SpotID 48266, pooled group mean",0.93
same,"group mean, gene ARHC","SpotID 48280, MAA and Josa vs. Clari",0.90
same,"group mean, gene GCN5L1","SpotID 48301, MAA and Josa vs. Clari",0.93
same,"mean group, GCN5L1","SpotID 48301, pooled group mean",0.93
same,"group mean, gene FN1","SpotID 48328, MAA and Josa vs. Clari",1.00
same,"group mean, gene DNMT1","SpotID 48333, MAA and Josa vs. Clari",0.97
same,"mean group, CCT3","SpotID 48345, pooled group mean",0.97
same,"group mean, gene FN1","SpotID 48348, MAA and Josa vs. Clari",1.00
same,"group mean, gene CNOT2","SpotID 48363, MAA and Josa vs. Clari",1.03
same,"group mean, gene MAPK9","SpotID 48365, MAA and Josa vs. Clari",1.04
same,"mean group, MAPK9","SpotID 48365, pooled group mean",1.04
same,"group mean, gene CNOT2","SpotID 48396, MAA and Josa vs. Clari",1.04
same,"group mean, gene HIF1A","SpotID 48397, MAA and Josa vs. Clari",1.09
same,"group mean, gene MGEA5","SpotID 48411, MAA and Josa vs. Clari",0.97
same,"mean group, MGEA5","SpotID 48411, pooled group mean",0.97
same,"group mean, gene SERPINB1","SpotID 48415, MAA and Josa vs. Clari",1.02
same,"mean group, SERPINB1","SpotID 48415, pooled group mean",1.02
same,"group mean, gene M6PR","SpotID 48451, MAA and Josa vs. Clari",0.97
same,"group mean, gene DDC","SpotID 48456, MAA and Josa vs. Clari",1.12
same,"mean group, DDC","SpotID 48456, pooled group mean",1.12
same,"mean group, BARD1","SpotID 48461, pooled group mean",0.98
same,"group mean, gene MCM5","SpotID 48470, MAA and Josa vs. Clari",0.97
same,"group mean, gene RBM3","SpotID 48471, MAA and Josa vs. Clari",1.06
same,"mean group, SpotID 48486","SpotID 48486 (gene symbol not given), pooled group mean",1.21
same,"group mean, gene RPL13A","SpotID 48500, MAA and Josa vs. Clari",1.05
same,"mean group, RPL13A","SpotID 48500, pooled group mean",1.05
same,"group mean, gene USP24","SpotID 48508, MAA and Josa vs. Clari",1.03
same,"group mean, gene ARAF1","SpotID 48521, MAA and Josa vs. Clari",1.12
same,"mean group, ARAF1","SpotID 48521, pooled group mean",1.12
same,"group mean, gene APLP2","SpotID 48530, MAA and Josa vs. Clari",0.95
same,"mean group, APLP2","SpotID 48530, pooled group mean",0.95
same,"mean group, NFE2L1","SpotID 48557, pooled group mean",0.97
same,"mean group, XBP1","SpotID 48620, pooled group mean",0.98
same,"group mean, gene DIP2","SpotID 48643, MAA and Josa vs. Clari",1.00
same,"group mean, gene KIAA0323","SpotID 48644, MAA and Josa vs. Clari",1.01
same,"group mean, gene SDCBP","SpotID 48646, MAA and Josa vs. Clari",0.97
same,"mean group, SDCBP","SpotID 48646, pooled group mean",0.97
same,"mean group, FECH","SpotID 48654, pooled group mean",1.05
same,"group mean, gene CHK","SpotID 48672, MAA and Josa vs. Clari",0.87
same,"group mean, gene HSPBP1","SpotID 48693, MAA and Josa vs. Clari",1.04
same,"mean group, HSPBP1","SpotID 48693, pooled group mean",1.04
same,"group mean, gene SIGIRR","SpotID 48705, MAA and Josa vs. Clari",0.97
same,"group mean, gene P4HA1","SpotID 48707, MAA and Josa vs. Clari",0.97
same,"mean group, P4HA1","SpotID 48707, pooled group mean",0.97
same,"group mean, gene MKNK2","SpotID 48713, MAA and Josa vs. Clari",0.96
same,"mean group, PPP3CB","SpotID 48717, pooled group mean",1.09
same,"group mean, gene IKKE","SpotID 48725, MAA and Josa vs. Clari",0.84
same,"mean group, IKKE","SpotID 48725, pooled group mean",0.84
same,"mean group, RALA","SpotID 48732, pooled group mean",0.98
same,"mean group, MAFB","SpotID 48747, pooled group mean",1.14
same,"group mean, gene KIAA0217","SpotID 48804, MAA and Josa vs. Clari",1.01
same,"mean group, KIAA0217","SpotID 48804, pooled group mean",1.01
